Patent US20110280913A1, “Methods and Compositions for Delivering Therapeutic Agents in the Treatment of B-Cell Related Disorders” (THE OHIO STATE UNIVERSITY, priority 2008, published 2011)

Experiments:
CLL cells [1] = experiment: Apoptosis of CLL cells with lenalidomide alone; format: cell-based, human; conditions: 0.5 μM lenalidomide, 48 or 72 hours
Procedure: CLL B cells were isolated by Ficoll centrifugation using Rosette-Sep reagent (StemCell Technologies, Vancouver, BC) according to the manufacturer's instructions. CLL cells were incubated in RPMI 1640 medium supplemented with 10% heat-inactivated human serum (Valley Biomedical, Winchester, Va.), 2 mM L-glutamine (Invitrogen, Carlsbad, Calif.), and 100 U/mL penicillin/100 μg/mL streptomycin (Sigma-Aldrich, St Louis, Mo.) at 37° C. in 5% CO2.
In addition, samples with no treatment or crosslinker alone were collected at matched time points. […]
Cytotoxicity results were expressed as percentage of total positive cells over untreated control [% positive cells=(% annexin^+ and/or PI^+ cells of treatment group)−(% annexin^+ and/or PI^+ cells of untreated control)].

CD20 [2] = experiment: Immunophenotyping (flow cytometry) of CD20 on CLL cells; format: cell-based, human
Procedure: (§1) Immunophenotyping was performed to determine the percentage and mean fluorescence intensity of CD20, CD19, CD5, CD23, CD38, CD3, and CD52 on CLL cells relative to a specific isotype control. Cells (10^6) were washed in PBS, stained with fluorochrome-labeled antibodies at 4° C., then rinsed in PBS and analyzed by flow cytometry (EPICS-XL; Beckman Coulter, Fullerton, Calif.). A total of 10,000 events were collected and analyzed using Windows Multiple Document Interface for Flow Cytometry (WinMDI). CD20, CD19, CD3, CD5, CD23, and CD38 antibodies were obtained from BD Biosciences (San Jose, Calif.), and CD52 antibody was obtained from Serotec (Raleigh, N.C.).
All analyses were performed by the Center for Biostatistics, The Ohio State University. Mixed effects models were fitted to the cytotoxicity data. Random effects associated with the interactions were always included in the models to ensure that error was not underestimated. SPSS software, version 13.0 (SPSS, Chicago, Ill.) was used for the statistical analysis. Nonparametric paired Wilcoxon signed ranked tests were performed to examine both the proportion and mean fluorescence intensity change of cells expressing specific antigens after treatment with lenalidomide or media for 48 hours. A paired t test was used to evaluate whether there was a change in CD20 expression level between cells treated with lenalidomide and untreated control.

CD23 = experiment: Immunophenotyping (flow cytometry) of CD23 on CLL cells; format: cell-based, human; conditions: 0.5 μM, 48 h, vs vehicle, n=6, P=0.001
Procedure: as §1

CD5 = experiment: Immunophenotyping (flow cytometry) of CD5 on CLL cells; format: cell-based, human; conditions: 0.5 μM, vs vehicle
Procedure: as §1

CD52 = experiment: Immunophenotyping (flow cytometry) of CD52 on CLL cells; format: cell-based, human; conditions: 0.5 μM, vs vehicle, data not shown
Procedure: as §1

CD20 mRNA = experiment: Real-time RT-PCR of CD20 mRNA in CLL cells; format: cell-based, human; conditions: 24 and 48 hours, compared with vehicle control
Procedure: RNA was extracted with TRIzol reagent (Invitrogen) according to the manufacturer's directions and converted to cDNA with the SuperScript First-Strand Synthesis System (Invitrogen). Real-time polymerase chain reaction was performed using custom-designed primers for CD20 (ID: Hs00544819_m1; Applied Biosystems, Foster City, Calif.) and an ABI Prism 7700 sequence detection system (Applied Biosystems). The expression of CD20 relative to an internal control gene was calculated by plotting the Ct (cycle number), and the average relative expression for each group was determined using the comparative method (2^−Ct).^24
The inventors herein then determined whether the mechanism by which lenalidomide down-regulates CD20 antigen was via decreased transcription. CD20 mRNA expression level was assessed by real-time reverse-transcribed polymerase chain reaction (RT-PCR) in lenalidomide- and vehicle-treated CLL cells at 24 and 48 hours.

CD20 [3] = experiment: Intracellular CD20 staining (flow cytometry); format: cell-based, human
Procedure: CLL cells were incubated with a molar excess of rituximab to saturate the binding of extracellular CD20. Cells were washed twice with PBS and then fixed and permeablilized using the Cytofix/Cytoperm Kit (BD Biosciences PharMingen, San Diego, Calif.) according to the manufacturer's recommendations. Cells were then incubated with CD20-phycoerythrin (PE) antibody, washed twice in PBS, and analyzed by flow cytometry. To ensure the specificity of the staining procedure, binding of IgG1-k isotype antibody was also measured.

NK cells = experiment: CD56 and CD16 surface expression on purified NK cells (flow); format: cell-based, human; conditions: lenalidomide 72 hours
Procedure: FIG. 4B: Lenalidomide treatment increases percentage of CD56+/[…] cells. Negatively selected NK cells were incubated with Lenalidomide (0.5 μM) or vehicle control. CD56 and CD16 surface expression was analyzed by flow after 72 h of treatment. The graphs show, respectively, percentage change CD56+/CD16+ (left panel, N=12, p<0.01) and CD56−/CD16+ (right panel, N=12, p<0.005) double positive cells.
(§2) For ADCC experiments, CD56^+ and CD19^+ cells were negatively purified from whole blood obtained from either healthy volunteers or CLL subjects by magnetic-activated cell sorting according to the manufacturer's recommendations (MiniMACS; Miltenyi Biotec, Auburn, Calif.). The purity of enriched populations was always greater than 95% of the total yield as detected by CD19 and CD3 staining.

CLL cells [4] = experiment: ADCC, 4-hour 51Cr-release assay; format: cell-based, human
Procedure: as §2
ADCC activity was determined by standard 4-hour ^51Cr-release assay. ^51Cr-labeled target cells (10^5 CLL cells/mL) were incubated with media alone or in the presence of various antibodies (10 μg/mL) at 37° C. for 30 minutes. Unbound antibody was washed off and the cells plated at 10^4 cells/well. Effector cells (natural killer [NK] cells from healthy donors or CLL subjects) were then added to the plates at indicated effector-to-target (E:T) ratios. After a 4-hour incubation, supernatants were removed and measured using a gamma counter. The percentage of specific cell lysis was determined by the equation: % lysis=100×(ER−SR)/(MR−SR), where ER, SR, and MR represent experimental, spontaneous, and maximum release, respectively. Data were normalized to the untreated control.

human monocytes = experiment: Antibody-dependent cellular phagocytosis by human monocytes; format: cell-based; conditions: data not shown
[5] = tested on: B-cell lymphoma cell lines; conditions: cited from earlier work
[6] = dose range 0.05-3 μM, evaluated at 24, 48 and 72 hours

Nc1cccc2c1CN(C1CCC(=O)NC1=O)C2=O (stereo not shown) [lenalidomide]
apoptosis in vitro (CLL cells [1]): no apoptosis
reduction in the proportion of CD20-expressing cells (CD20 [2]; 0.5 μM, 48 h, compared with vehicle-treated controls, n=18, P<0.001): at least 40%
reduction in relative mean fluorescence intensity of CD20-expressing cells (CD20 [2]; 0.5 μM, 48 h, compared with vehicle-treated controls, n=18, P=0.001): at least 40%
concentration of maximum effect on CD20 down-regulation (CD20 [2]; [6]): 0.5 µM
time of maximum effect on CD20 down-regulation (CD20 [2]; [6]): 72 h
CD23 activation marker level on CLL cells (CD23): increased levels
CD5 expression on CLL cells (CD5): no changes
CD52 expression on CLL cells (CD52): no changes
CD20 mRNA transcription (CD20 mRNA): very modest increase
CLL subject samples with reduction of CD20 antigen surface expression (CD20 [3]; after lenalidomide treatment): 6 of 8
intracellular CD20 fluorescence (CD20 [3]; compared with vehicle-treated controls, P=0.006): increased intracellular fluorescence
percentage of CDC16+/CD56− cells (NK cells; N=12, P<0.005 (vehicle 35% ±13%)): 20% ±11%
percentage of CD16+/CD56+ cells (NK cells; N=12, P<0.01 (vehicle 18% ±10%)): 31% ±14%
rituximab-mediated ADCC (CLL cells [4]; cotreatment of autologous NK cells and primary CLL cells, 0.5 μM, 72 hours, vs NK-only controls, N=2, P=0.02): diminished
rituximab-mediated ADCC (CLL cells [4]; lenalidomide-pretreated CLL B cells, allogeneic NK cells, N=5, P<0.05): decrease
rituximab-mediated ADCC (CLL cells [4]; lenalidomide-pretreated CLL B cells, autologous NK cells, N=2, P<0.05): decrease
rituximab-mediated ADCC against target CLL subject cells (CLL cells [4]; lenalidomide-treated NK cells from a healthy donor, N=4, P=0.009): overall enhancement
antibody-dependent cellular phagocytosis (human monocytes): not modulated
CD20 surface antigen expression [5]: without affecting
